According to US6447817B1, “Anti-inflammatory analgesic” (Nippon Hypox Laboratories Inc., priority 1998, dated 2002):
Entries after “also recorded” stand apart in the source; their conditions may differ.

Test system: serotonin swelling of rat
Assay: Inhibition of serotonin swelling of rat sole after application to the skin
Type: in vivo
Details: for Average swelling ratio (%) / Average inhibition ratio (%): rat right sole, measured 30 min after injection; for Average swelling ratio (%): 1.5 g of 2% xanthan gum solution with 3% test sample applied 2 h before serotonin injection, control 30; for Average inhibition ratio (%): 3% test sample applied 2 h before serotonin injection
Experimental: For clarifying the effect of the anti-inflammation analgesic preparation of the present invention, the effect of the anti-inflammation analgesic preparation on inhibition of serotonin swelling is shown below.
1.5 Grams of a 2% xanthan gum solution containing a test sample of having a concentration of 3% was applied to a portion ranging from a right femoral portion to a sole portion (bottom portion) of a rat. Two hours after the test sample was applied, a solution of 3 μg/ml of serotonin in 0.1 ml of a saline solution was hypodermically injected into the sole of the right foot. Thirty minutes after the injection of the inflammatory substance, the swelling of the sole of the right leg was measured to determine a swelling ratio. When serotonin as an inflammatory substance involving the generation of a pain is injected, a swelling involving a pain is caused.

In the case of `O=C(O)COc1nn(Cc2ccccc2)c2ccccc12` [Bendazac, reference compound], the “Average swelling ratio (%)” value is reported as 30%, the “Average inhibition ratio (%)” value is reported as 0% and the “Inhibition of serotonin swelling (in words)” value (rat, 3% test sample applied to skin) is reported as “failed to inhibit the above inflammation reaction; also recorded: showed no effect on the swelling and was ineffective”.
In the case of `CCCCCCCCCCCCOC1=C(O)C(=O)O[C@@H]1[C@@H](O)CO` [L-3-0-dodecylascorbic acid], the “Average swelling ratio (%)” value is reported as 14% and the “Average inhibition ratio (%)” value is reported as 54%.
`CCCCCCCCCCCCC(=O)COC1=C(O)C(=O)O[C@@H]1[C@@H](O)CO` [L-3-0-dodecylcarbonylmethylascorbic acid, L-3-0-dodecylcarbonyl-methylascorbic acid] was tested, and the “Average swelling ratio (%)” value was 13% and the “Average inhibition ratio (%)” value was 57%.
With `CCOC1=C(O)C(=O)O[C@@H]1[C@@H](O)CO` [L-3-0-ethylascorbic acid] the “Average swelling ratio (%)” value was 12% and the “Average inhibition ratio (%)” value was 76%.
For `CCCCCCCCCCCCCCCCCCOC(=O)COC1=C(O)C(=O)O[C@@H]1[C@@H](O)CO` [L-3-0-octadecyloxycarbonylmethylascorbic acid], the “Average swelling ratio (%)” value was 15% and the “Average inhibition ratio (%)” value was 50%.
For `O=C1O[C@H]([C@@H](O)CO)C([O-])=C1OP(=O)(O)O.O=C1O[C@H]([C@@H](O)CO)C([O-])=C1OP(=O)(O)O.[Mg+2]` [L-ascorbic acid-2-phosphoric acid ester magnesium salt], the “Average swelling ratio (%)” value was 28% and the “Average inhibition ratio (%)” value was 7%.
